# Measurements reported in patent US20250353873A1, “COMPOUNDS AND METHODS FOR MODULATING APOE EXPRESSION” (Ionis Pharmaceuticals, Inc., priority 2024, published 2025).
# Strand notation (5' to 3'): a small letter for the sugar, then the base; units joined by * are phosphorothioate-linked, units joined directly phosphodiester-linked; [ ] holds rarer units or linkages, { } end groups; capitals alone tell only the bases. [ms] = mesyl phosphoramidate linkage; e = 2'-O-(2-methoxyethyl) (MOE); k = constrained ethyl (cEt); [5mC] = 5-methylcytosine; d = 2'-deoxy (DNA)
# Assays:
# human APOE RNA [1] = assay: Activity in APOE C57BL/6NTac-Apoeem7250 knock-in mice, single ICV bolus, 20 weeks (Example 13); type: in vivo; settings: single ICV bolus 300 μg, 20 weeks post treatment, normalized to mouse Ppia
# In short: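 Cortical and spinal cord RNA was assayed by real-time RT-PCR for human APOE, normalized to mouse Ppia and reported as percent of PBS controls. Tissue was taken twenty weeks after one 300 μg intracerebroventricular bolus in APOE knock-in mice, 4 per group.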
# human APOE RNA [2] = assay: Activity in APOE C57BL/6NTac-Apoeem7250 knock-in mice, single ICV bolus, 16 weeks (Example 12); type: in vivo; settings: single ICV bolus 300 μg, 16 weeks post treatment, normalized to mouse Ppia
# In short: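 A single 300 μg intracerebroventricular dose was given, with PBS-treated mice as reference; cortical and spinal cord tissue was taken 16 weeks later. RT-qPCR quantified human APOE RNA, Ppia-normalized, expressed relative to PBS animals (% control).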
# human APOE RNA [3] = assay: Dose-dependent inhibition of human APOE RNA in HepG2 cells, electroporation, 50,000 cells per well, RT-PCR normalized to GAPDH (Example 4, Tables 8-10); type: cell-based; settings: for APOE RNA (% UTC) 1,280 nM: 24-hour treatment, 1,280 nM; for APOE RNA (% UTC) 3,200 nM: 24-hour treatment, 3,200 nM; for APOE RNA (% UTC) 8,000 nM: 24-hour treatment, 8,000 nM; for APOE RNA (% UTC) 20,000 nM: 24-hour treatment, 20,000 nM
# In short: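 Readout is percent APOE RNA versus untreated controls, measured by RT-PCR (primer probe set RTS3073) and normalized to human GAPDH. Modified oligonucleotides were delivered by electroporation at varying doses into HepG2 cells plated at 50,000 per well.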
# [4] = HepG2 cells, electroporation, 24-hour treatment, 5 nM, Table 8
# [5] = HepG2 cells, electroporation, 24-hour treatment, 13 nM, Table 8
# [6] = HepG2 cells, electroporation, 24-hour treatment, 33 nM, Table 8
# [7] = HepG2 cells, electroporation, 24-hour treatment, 82 nM, Table 8
# [8] = HepG2 cells, electroporation, 24-hour treatment, 205 nM, Table 8
# [9] = HepG2 cells, electroporation, 24-hour treatment, 512 nM, Table 8
# [10] = HepG2 cells, electroporation, Table 8
# [11] = reduction of human APOE RNA, HepG2 cells, electroporation, 24-hour treatment, Table 8
Substance,APOE RNA (% control) Cortex (human APOE RNA [1]) [% control],APOE RNA (% control) Spinal Cord (human APOE RNA [1]) [% control],APOE RNA (% control) Cortex (human APOE RNA [2]) [% control],APOE RNA (% control) Spinal Cord (human APOE RNA [2]) [% control],APOE RNA (% UTC) 5 nM (human APOE RNA [3]; [4]) [% UTC],APOE RNA (% UTC) 13 nM (human APOE RNA [3]; [5]) [% UTC],APOE RNA (% UTC) 33 nM (human APOE RNA [3]; [6]) [% UTC],APOE RNA (% UTC) 82 nM (human APOE RNA [3]; [7]) [% UTC],APOE RNA (% UTC) 205 nM (human APOE RNA [3]; [8]) [% UTC],APOE RNA (% UTC) 512 nM (human APOE RNA [3]; [9]) [% UTC],"APOE RNA (% UTC) 1,280 nM (human APOE RNA [3]; [10]) [% UTC]","APOE RNA (% UTC) 3,200 nM (human APOE RNA [3]; [10]) [% UTC]","APOE RNA (% UTC) 8,000 nM (human APOE RNA [3]; [10]) [% UTC]","APOE RNA (% UTC) 20,000 nM (human APOE RNA [3]; [10]) [% UTC]",IC50 (human APOE RNA [3]; [11]) [nM],further results
1778128: modified oligonucleotide complementary to human APOE RNA (eA*e[5mC]eTeTkGkG*dT*dG[ms]dA[ms]dA*dT*d[5mC]*dT*dT*dT*dA[ms]kTeT*eA*eA; antisense) [compound 1778128],60,22,34,22,81,83,66,53,39,28,22,9,8,5,100,–
1778130: modified oligonucleotide complementary to human APOE RNA (eA*e[5mC]eTeTeG*kG*dT*dG[ms]dA[ms]dA*dT*d[5mC]*dT*dT*dT*dA[ms]kTkT*eA*eA; antisense) [compound 1778130],48,19,34,15,100,106,93,75,61,44,26,19,10,6,400,–
1785599: modified oligonucleotide complementary to human APOE RNA (k[5mC]*kT*kT*dG[ms]dG[ms]dT[ms]dG[ms]dA[ms]dA[ms]dT[ms]d[5mC]*dT*dT*dT*dA*dT*kT*kA*dA[ms]kA; antisense) [compound 1785599],55,20,35,54,116,116,100,87,65,48,43,21,9,2,640,–
1757575 (eA*e[5mC]eTeT*kG*kG*dT*dG[ms]dA[ms]dA[ms]dT*d[5mC]*dT*dT*dT*dA[ms]kT*eT*eA*eA; antisense) [Compound 1757575],39,88,33,21,–,–,–,–,–,–,–,–,–,–,–,"APOE RNA (% UTC) (human APOE RNA [3]; 5 nM, HepG2, electroporation, 16-hour treatment): 84 % UTC; APOE RNA (% UTC) (human APOE RNA [3]; 13 nM, HepG2, electroporation, 16-hour treatment): 80 % UTC; APOE RNA (% UTC) (human APOE RNA [3]; 33 nM, HepG2, electroporation, 16-hour treatment): 87 % UTC; APOE RNA (% UTC) (human APOE RNA [3]; 82 nM, HepG2, electroporation, 16-hour treatment): 78 % UTC; APOE RNA (% UTC) (human APOE RNA [3]; 205 nM, HepG2, electroporation, 16-hour treatment): 81 % UTC; APOE RNA (% UTC) (human APOE RNA [3]; 512 nM, HepG2, electroporation, 16-hour treatment): 51 % UTC; APOE RNA (% UTC) (human APOE RNA [3]; 1,280 nM, HepG2, electroporation, 16-hour treatment): 44 % UTC; APOE RNA (% UTC) (human APOE RNA [3]; 3,200 nM, HepG2, electroporation, 16-hour treatment): 37 % UTC; APOE RNA (% UTC) (human APOE RNA [3]; 8,000 nM, HepG2, electroporation, 16-hour treatment): 25 % UTC; APOE RNA (% UTC) (human APOE RNA [3]; 20,000 nM, HepG2, electroporation, 16-hour treatment): 15 % UTC; IC50 (human APOE RNA [3]; HepG2, electroporation, 16-hour treatment): 940 nM"
1785617: modified oligonucleotide complementary to human APOE RNA (k[5mC]*dT[ms]dT[ms]kG*dG[ms]kT*dG[ms]dA[ms]dA[ms]dT[ms]d[5mC]*dT*dT*dT*dA*dT*kT*kA*dA[ms]kA; antisense) [compound 1785617],61,38,37,28,91,104,93,83,93,50,47,18,27,11,950,–
1746809 (k[5mC]*dT[ms]kT*dG[ms]kG*dT[ms]dG[ms]dA[ms]dA[ms]dT*d[5mC]*dT*dT*dT*dA[ms]dT*dT[ms]kA*kA*kA; antisense) [Compound 1746809],–,–,–,–,–,–,–,–,–,–,–,–,–,–,–,"APOE RNA (% UTC) (human APOE RNA [3]; 5 nM, HepG2, electroporation, 24-hour treatment): 91 % UTC; APOE RNA (% UTC) (human APOE RNA [3]; 33 nM, HepG2, electroporation, 24-hour treatment): 98 % UTC; APOE RNA (% UTC) (human APOE RNA [3]; 82 nM, HepG2, electroporation, 24-hour treatment): 74 % UTC; APOE RNA (% UTC) (human APOE RNA [3]; 205 nM, HepG2, electroporation, 24-hour treatment): 81 % UTC; APOE RNA (% UTC) (human APOE RNA [3]; 512 nM, HepG2, electroporation, 24-hour treatment): 54 % UTC; APOE RNA (% UTC) (human APOE RNA [3]; 1,280 nM, HepG2, electroporation, 24-hour treatment): 35 % UTC; APOE RNA (% UTC) (human APOE RNA [3]; 3,200 nM, HepG2, electroporation, 24-hour treatment): 33 % UTC; APOE RNA (% UTC) (human APOE RNA [3]; 8,000 nM, HepG2, electroporation, 24-hour treatment): 23 % UTC; APOE RNA (% UTC) (human APOE RNA [3]; 20,000 nM, HepG2, electroporation, 24-hour treatment): 14 % UTC; IC50 (human APOE RNA [3]; HepG2, electroporation, 24-hour treatment): 840 nM"
1785598: modified oligonucleotide complementary to human APOE RNA (k[5mC]*kT*kT*dG[ms]dG[ms]dT[ms]dG[ms]dA[ms]dA[ms]dT*d[5mC]*dT*dT*dT*dA*dT[ms]kT*kA*dA[ms]kA; antisense) [compound 1785598],72,30,36,24,112,109,110,95,70,73,33,21,8,9,840,–
1778111: modified oligonucleotide complementary to human APOE RNA (eA*e[5mC]eTeTeG*kG*dT*dG[ms]dA[ms]dA*dT*d[5mC]*dT*dT*dT*dA[ms]eTeT*eA*eA; antisense) [compound 1778111],59,25,49,27,75,96,73,61,53,44,27,17,12,9,240,–
1778131: modified oligonucleotide complementary to human APOE RNA (eA*e[5mC]eTeTeGkG*dT*dG[ms]dA[ms]dA*dT*d[5mC]*dT*dT*dT*dA[ms]kTkT*eA*eA; antisense) [compound 1778131],65,43,34,17,104,117,101,78,71,50,35,28,7,5,630,–
"1693105: 6-10-4 MOE gapmer CTTGGTGAATCTTTATTAAA, linkages sosssszzzssssszssss (e[5mC]*eTeT*eG*eG*eT*dG[ms]dA[ms]dA[ms]dT*d[5mC]*dT*dT*dT*dA[ms]dT*eT*eA*eA*eA) [compound 1693105]",–,–,65,44,–,–,–,–,–,–,–,–,–,–,–,–
